Measured values as given in paper PMC8362065, “Easily Available, Amphiphilic Diiron Cyclopentadienyl Complexes Exhibit in Vitro Anticancer Activity in 2D and 3D Human Cancer Cells through Redox Modulation Triggered by CO Release” (Chemistry (Weinheim an Der Bergstrasse, Germany), 2021).

What was measured:
PSN‐1 cells [1] = experiment: ROS production, CM-H2DCFDA fluorescence; format: cell-based, human; conditions: time-dependent (Figure 5A)
From the text: (§1) Iron is a redox active metal that can generate ROS in cells via the Fenton reaction, thus inducing cellular damage and ultimately leading to cell death.[40] […] Based on this premises, we evaluated the effects induced by the diiron complexes on the mitochondria activity and the cellular redox environment. More precisely, we investigated the ROS production and the alteration of the mitochondrial membrane potential. […] The time‐dependent ROS basal production is probably associated to more than one phenomenon. First of all, the progressive disruption of the diiron structure leads to the extrusion of the Fe^I centres, which are expected to subsequently convert into Fe^III (in fact, slow precipitation of iron(III) oxides has been recognized from water solution, see above). […]
(§2) Figure 5 Effects induced by compounds [2C]CF3SO3 and [2D]CF3SO3 at the mitochondrial level. […] The fluorescence of DCF was measured at λ ex=485 nm and λ em=527 nm. […] Fluorescence was estimated at λ ex=490 nm and λ em=590 nm. […]
ROS production. The production of ROS was measured in PSN‐1 cells (10^4 per well) grown for 24 h in a 96‐well plate in RPMI medium without phenol red (Merck). […] Fluorescence increase was estimated by using λ ex=485 nm and λ em=527 nm in a VICTOR X3 (PerkinElmer) plate reader. […]

[2] = tested on: thioredoxin reductase (TrxR); conditions: cell-free experiment (data not shown)
From the text: It has recently emerged that the redox stress induced by some iron complexes might also be attributed to their ability to inhibit the selenoenzyme thioredoxin reductase (TrxR).

HEK293 noncancer cells = experiment: Intracellular CO release, fluorescent CO probe; format: cell-based, human; conditions: 20 μM, 30 min, fluorescent probe (Figure 4B)
Method: (§3) Figure 4 Intracellular detection of iron and carbon monoxide. A) Cellular uptake in PSN‐1 and HEK293 cells; cells were incubated with 50 μM of complexes for 24 h, and the cellular iron content was detected by GFAAS analysis. B) Intracellular CO levels were determined by using a fluorescent probe (BioTracker Carbon Monoxide Probe 1 Live Cell Dye®, Merck, Germany) after 30 min of treatment of PSN‐1 or HEK293 cells with 20 μM [2C]CF3SO3 and [2D]CF3SO3, or 20 μM CORM‐401 as positive control. ** P<0.01, * P<0.05.
(§4) Additional studies were conducted in order to elucidate the mode of action underlying the cell killing effect of the newly synthesized diiron complexes in cancer cells. In particular, based on the evidence of their tendency to slowly release CO in aqueous media (see section on solubility, partition coefficient, stability in aqueous media), we evaluated the ability of the most performant complexes [2C]CF3SO3 and [2D]CF3SO3 to release carbon monoxide inside PSN‐1 pancreatic cancer cells and HEK293 noncancer cells. A fluorometric test was conducted over a short time interval (30 min) by means of a CO sensing dye (Figure 4B). […] The relatively fast release of carbon monoxide within the cell might be associated to the presence of a consistent amount and variety of biological substrates, which can quicken the formation of CO substitution diiron products. As a matter of fact, it is well documented that [2E–F]CF3SO3 are susceptible to replacement of one terminal CO ligand by suitable C‐, P‐, S‐ and N‐donors to give adducts of general formula [Fe2Cp2(CO)(L)(μ‐CO){μ‐CNR(Me)}]^0/+.[[15b], [16a], [20]] Although the nature of L in the cell context is far from being clarified, it is reasonable to speculate that CO release is readily operative via such substitution pathway. However, an acceleration of the route leading to the extensive decomposition of the diiron scaffold (elimination of three COs per complex), as observed in aqueous media, might also contribute.
(§5) Intracellular CO release. PSN‐1 cell (1×10^4) were seeded in 96‐well plates. After 24 h, cells were treated with 20 μM of tested complexes or CORM‐401 (Merck) for […] at 37 °C and followed by 30 min incubation with a fluorescent probe BioTracker Carbon Monoxide Probe 1 Live Cell Dye® (Merck). The intracellular fluorescence, indicative of CO accumulation in cells, was quantified using a VICTOR X3 (PerkinElmer) plate reader.

[3] = tested on: PSN‐1 pancreatic cancer cells; experiment: Intracellular CO release, fluorescent CO probe; format: cell-based, human; conditions: PSN‐1 cells, 20 μM, 30 min, fluorescent probe (Figure 4B)
Method: as §3, §4, §5

PSN‐1 cells [4] = experiment: Mitochondrial membrane potential; format: cell-based, human; conditions: 24 h (Figure 5B)
From the text: as §1, with “above). Otherwise, based on previous voltammetric measurements on [2E–F]CF3SO3,[41] oxidation of iron enclosed in the complex is out of the range of biologically relevant potentials.” for “above).”
as §2
Mitochondrial membrane potential (ΔΨ). […] Fluorescence intensity was estimated using a VICTOR X3 (PerkinElmer, USA) plate reader at λ ex=490 and λ em=590 nm. […]

[5] = tested on: TrxR in human pancreatic PSN‐1 cancer cells; experiment: TrxR activity in treated cells, NADPH-dependent reduction of DTNB; format: cell-based; conditions: PSN‐1 cells, 25 μM, 24 h
Method: Figure 6 Effects of compounds [2C]CF3SO3, [2D]CF3SO3 and Auranofin as positive control on TrxR in human pancreatic cells. […] Afterwards, cells were washed twice with PBS and lysed. TrxR activity was tested by measuring the NADPH‐dependent reduction of DTNB. * P<0.05.

| Substance | Cellular ROS production (PSN‐1 cells [1]) | TrxR inhibition [2] | Intracellular CO levels (HEK293 noncancer cells) | Intracellular CO levels [3] | Cells with depolarized mitochondria (mitochondrial membrane potential) (PSN‐1 cells [4]) | residual TrxR cellular activity [5] [%] |
| --- | --- | --- | --- | --- | --- | --- |
| [Fe2Cp2(CO)2(μ‐CO){μ‐CNMe(4‐C6H4OMe)}]CF3SO3 [[2D]CF3SO3] | substantial increase in cellular ROS production | completely ineffective | lower levels of CO were detected | effective in significantly release CO | significant dose‐dependent increase of cells with depolarized mitochondria | 39 |
| [Fe2Cp2(CO)2(μ‐CO){μ‐CNMe(C6H11)}]X [[2C]CF3SO3] | substantial increase in cellular ROS production | completely ineffective | lower levels of CO were detected | effective in significantly release CO | significant dose‐dependent increase of cells with depolarized mitochondria | 57 |
